Values quoted from earlier work as cited in patent publication US20260216106A1, “DOSAGE FORM FOR INTRA-ARTICULAR INJECTION […] USE IN THE TREATMENT OF A JOINT DISEASE SUCH AS OSTEOARTHRITIS” (priority 2023, published 2026).

Conditions: literature (Niel et al 2006)

COc1cc2c(c(OC)c1OC)-c1ccc(OC)c(=O)cc1[C@@H](NC(C)=O)CC2 [colchicine, N-[(7S)-1,2,3,10-tetramethoxy-9-oxo-6,7-dihydro-5H-benzo[a]heptalen-7-yl]acetamide]
lethal dose: 0.8 mg/kg
toxicity limit dose: 0.1 mg/kg
